For assay [1], the target named is T1, DYRK1A (Homo sapiens, UniProt Q13627).
T1 construct: purchased ProQinase (Freiburg, Germany)
In words: SF3B1 Thr434 phosphorylation in HeLa cells (immunoblot). The assay is classed as cell-based. The conditions noted are these: HeLa cells expressing GFP-SF3B1-NT, 18 h. The protocol: Fig 4 Inhibition of SF3B1 phosphorylation by DYRK1A in HeLa cells. HeLa cells expressing GFP-SF3B1-NT were treated with the indicated compounds for 18 h. The phosphorylation state of SF3B1 was determined by immunoblotting with pT434 antibody, and the results were normalized to the total amount of SF3B1 immunoreactivity. A, Representative western blots. […] The vertical line indicates where irrelevant lanes were deleted from the final image. B, The column diagram summarizes the quantitative evaluation of 3–6 experiments for each compound (means + SD).
(500 ng/well) using FuGENE HD (Promega, Mannheim, Germany).
(In western blotting, separated proteins are transferred to a membrane and probed.)

Assay [2] concerns the target IRAK1 (Homo sapiens, UniProt P51617). The arrangement: purchased ProQinase (Freiburg, Germany). Particulars: 10 μM; cited from earlier work.
Assay [3] relates to Haspin. The conditions noted are these: cited from earlier work.
Assay [4] has as its target T2, DYRK1B (Homo sapiens, UniProt Q9Y463). Further details: purchased ProQinase (Freiburg, Germany). Particulars: 10 μM; cited from earlier work.
The test system of assay [5] is DYRK1A. Particulars: cited from earlier work.
Assay [6] deals with T3, HIPK2 (Homo sapiens, UniProt Q9H2X6). The arrangement: purchased ProQinase (Freiburg, Germany). Particulars: cited from earlier work.
Assay [7] concerns the target PIM3 (Homo sapiens, UniProt Q86V86). The arrangement: purchased ProQinase (Freiburg, Germany). The conditions noted are these: cited from earlier work.
In assay [8] the target is HIPK3 (Homo sapiens, UniProt Q9H422). The arrangement: purchased ProQinase (Freiburg, Germany). The conditions noted are these: cited from earlier work.
In assay [9] the target is PIM2 (Homo sapiens, UniProt Q9P1W9). The arrangement: purchased ProQinase (Freiburg, Germany). The conditions noted are these: cited from earlier work.
Assay [10] deals with HIPK1 (Homo sapiens, UniProt Q86Z02). Further details: purchased ProQinase (Freiburg, Germany). Particulars: cited from earlier work.
The target of assay [11] is T4, HIPK4 (Homo sapiens, UniProt Q8NE63).
T4 sequence (Q8NE63 1-616): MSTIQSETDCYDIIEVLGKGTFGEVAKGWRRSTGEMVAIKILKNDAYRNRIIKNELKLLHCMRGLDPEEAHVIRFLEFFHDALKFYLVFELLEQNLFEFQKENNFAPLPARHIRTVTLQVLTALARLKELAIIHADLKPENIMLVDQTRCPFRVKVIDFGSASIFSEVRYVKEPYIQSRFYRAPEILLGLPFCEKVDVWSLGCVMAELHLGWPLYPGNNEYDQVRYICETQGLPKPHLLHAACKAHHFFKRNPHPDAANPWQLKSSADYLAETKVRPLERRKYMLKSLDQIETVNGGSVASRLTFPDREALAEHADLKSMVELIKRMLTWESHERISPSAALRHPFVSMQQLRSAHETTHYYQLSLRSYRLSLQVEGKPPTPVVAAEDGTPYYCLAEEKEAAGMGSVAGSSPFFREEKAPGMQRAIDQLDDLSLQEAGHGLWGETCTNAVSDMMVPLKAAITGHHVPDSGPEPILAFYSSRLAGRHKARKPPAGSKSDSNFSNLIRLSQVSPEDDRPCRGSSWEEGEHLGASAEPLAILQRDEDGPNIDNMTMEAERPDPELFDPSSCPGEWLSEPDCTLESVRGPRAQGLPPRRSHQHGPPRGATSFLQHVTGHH
The arrangement: purchased ProQinase (Freiburg, Germany). The conditions noted are these: 10 μM; cited from earlier work.

Assay [12] concerns the target T5, DYRK2 (Homo sapiens, UniProt Q92630).
T5 construct: purchased ProQinase (Freiburg, Germany)
T5 sequence (Q92630 1-601): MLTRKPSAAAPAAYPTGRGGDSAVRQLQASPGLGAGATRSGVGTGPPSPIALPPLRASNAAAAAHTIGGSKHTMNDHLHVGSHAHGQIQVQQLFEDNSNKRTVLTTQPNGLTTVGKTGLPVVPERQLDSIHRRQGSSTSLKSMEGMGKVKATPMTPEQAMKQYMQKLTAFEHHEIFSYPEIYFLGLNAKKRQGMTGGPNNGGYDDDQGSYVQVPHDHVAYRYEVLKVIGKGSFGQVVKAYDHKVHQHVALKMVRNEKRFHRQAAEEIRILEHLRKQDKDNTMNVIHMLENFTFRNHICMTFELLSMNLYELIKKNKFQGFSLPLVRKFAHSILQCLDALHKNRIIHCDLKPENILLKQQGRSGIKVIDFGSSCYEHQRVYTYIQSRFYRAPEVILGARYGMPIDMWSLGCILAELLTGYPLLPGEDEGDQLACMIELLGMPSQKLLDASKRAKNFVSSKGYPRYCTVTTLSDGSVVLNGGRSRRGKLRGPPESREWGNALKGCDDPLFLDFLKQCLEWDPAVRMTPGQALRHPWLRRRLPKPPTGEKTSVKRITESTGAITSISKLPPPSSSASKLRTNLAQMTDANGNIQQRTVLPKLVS
Briefly: Kinase-GLO luminescent kinase assay. The assay is classed as biochemical. Particulars: 1 μM compound; means of at least 3 measurements. In a few lines: (§1)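 E. coli-expressed GST fusions (DYRK1A-ΔC, DYRK1B and HIPK2 catalytic domains, DYRK2) assayed in 25 mM Hepes pH 7.4, 5 mM MgCl2, 5 μM ATP with DYRKtide (20 μM for DYRKs, 100 μM for HIPK2). Kinase dosed to consume ~90% ATP; 30 min at room temperature, remaining ATP read by Kinase-GLO luminescence.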
In general terms: In Kinase-Glo more light means more ATP remaining.

The target in assay [13] is T1, DYRK1A. Briefly: Kinase-GLO luminescent kinase assay. The assay is classed as biochemical. The conditions noted are these: 1 μM compound; means of at least 3 measurements. In a few lines:
as §1

Assay [14] addresses T2, DYRK1B. Briefly: Kinase-GLO luminescent kinase assay. The assay is classed as biochemical. The arrangement: made in house; host or cells: E. coli. The conditions noted are these: 1 μM compound; means of at least 3 measurements. In a few lines: as §1
Assay [15] addresses T3, HIPK2. In words: Kinase-GLO luminescent kinase assay. Format: biochemical. The arrangement: made in house; host or cells: E. coli. Particulars: 10 μM compound; means of at least 3 measurements. In a few lines: as §1
For assay [16], the target named is T6, CLK1 (Homo sapiens, UniProt P49759). Briefly: Kinase-GLO luminescent kinase assay. Format: biochemical. Further details: made in house; host or cells: E. coli. The conditions noted are these: 1 μM compound; means of at least 3 measurements.
Assay [17] deals with T6, CLK1. Further details: purchased ProQinase (Freiburg, Germany). Particulars: 10 μM; cited from earlier work.
Assay [18] deals with T5, DYRK2. The conditions noted are these: cited from earlier work.
Assay [19] deals with PIM1 (Homo sapiens, UniProt P11309). Further details: purchased ProQinase (Freiburg, Germany). The conditions noted are these: cited from earlier work.
Assay [20] concerns the target T7, CLK3 (Homo sapiens, UniProt P49761).
T7 construct: purchased ProQinase (Freiburg, Germany)
The conditions noted are these: 10 μM; cited from earlier work.

For assay [21], the target named is T8, DYRK3 (Homo sapiens, UniProt O43781).
T8 construct: purchased ProQinase (Freiburg, Germany)
T8 sequence (O43781 1-588): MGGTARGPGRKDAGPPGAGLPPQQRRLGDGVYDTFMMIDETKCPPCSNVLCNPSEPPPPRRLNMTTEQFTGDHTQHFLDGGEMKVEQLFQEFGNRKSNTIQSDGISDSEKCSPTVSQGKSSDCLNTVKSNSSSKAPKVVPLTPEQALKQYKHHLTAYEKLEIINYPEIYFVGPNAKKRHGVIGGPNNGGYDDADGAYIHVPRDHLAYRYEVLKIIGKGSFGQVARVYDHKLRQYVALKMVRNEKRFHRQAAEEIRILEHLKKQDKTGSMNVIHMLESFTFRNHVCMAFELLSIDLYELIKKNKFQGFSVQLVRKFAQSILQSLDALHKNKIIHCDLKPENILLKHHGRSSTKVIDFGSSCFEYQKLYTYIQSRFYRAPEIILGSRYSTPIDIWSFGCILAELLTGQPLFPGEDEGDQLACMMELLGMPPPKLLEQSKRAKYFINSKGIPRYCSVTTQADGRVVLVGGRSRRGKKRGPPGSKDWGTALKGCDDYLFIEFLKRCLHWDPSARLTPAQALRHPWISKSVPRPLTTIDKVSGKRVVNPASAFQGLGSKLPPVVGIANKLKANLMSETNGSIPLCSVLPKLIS
Particulars: 10 μM; cited from earlier work.

In assay [22] the target is T9, CLK2 (Homo sapiens, UniProt P49760).
T9 construct: purchased ProQinase (Freiburg, Germany)
The conditions noted are these: 10 μM; cited from earlier work.

In assay [23] the test system is MAO-A. Further details: method as in PMID 25240617. Particulars: 1 μM; cited from earlier work.

SMILES strings stand for the structures. Read-outs that look alike come from different tables or passages of the source.

The source of these data is PMC4508061, “Selectivity Profiling and Biological Activity of Novel β-Carbolines as Potent and Selective DYRK1 Kinase Inhibitors” (PLoS ONE, 2015).

Chain of HIPK3 (Q9H422 whole entry): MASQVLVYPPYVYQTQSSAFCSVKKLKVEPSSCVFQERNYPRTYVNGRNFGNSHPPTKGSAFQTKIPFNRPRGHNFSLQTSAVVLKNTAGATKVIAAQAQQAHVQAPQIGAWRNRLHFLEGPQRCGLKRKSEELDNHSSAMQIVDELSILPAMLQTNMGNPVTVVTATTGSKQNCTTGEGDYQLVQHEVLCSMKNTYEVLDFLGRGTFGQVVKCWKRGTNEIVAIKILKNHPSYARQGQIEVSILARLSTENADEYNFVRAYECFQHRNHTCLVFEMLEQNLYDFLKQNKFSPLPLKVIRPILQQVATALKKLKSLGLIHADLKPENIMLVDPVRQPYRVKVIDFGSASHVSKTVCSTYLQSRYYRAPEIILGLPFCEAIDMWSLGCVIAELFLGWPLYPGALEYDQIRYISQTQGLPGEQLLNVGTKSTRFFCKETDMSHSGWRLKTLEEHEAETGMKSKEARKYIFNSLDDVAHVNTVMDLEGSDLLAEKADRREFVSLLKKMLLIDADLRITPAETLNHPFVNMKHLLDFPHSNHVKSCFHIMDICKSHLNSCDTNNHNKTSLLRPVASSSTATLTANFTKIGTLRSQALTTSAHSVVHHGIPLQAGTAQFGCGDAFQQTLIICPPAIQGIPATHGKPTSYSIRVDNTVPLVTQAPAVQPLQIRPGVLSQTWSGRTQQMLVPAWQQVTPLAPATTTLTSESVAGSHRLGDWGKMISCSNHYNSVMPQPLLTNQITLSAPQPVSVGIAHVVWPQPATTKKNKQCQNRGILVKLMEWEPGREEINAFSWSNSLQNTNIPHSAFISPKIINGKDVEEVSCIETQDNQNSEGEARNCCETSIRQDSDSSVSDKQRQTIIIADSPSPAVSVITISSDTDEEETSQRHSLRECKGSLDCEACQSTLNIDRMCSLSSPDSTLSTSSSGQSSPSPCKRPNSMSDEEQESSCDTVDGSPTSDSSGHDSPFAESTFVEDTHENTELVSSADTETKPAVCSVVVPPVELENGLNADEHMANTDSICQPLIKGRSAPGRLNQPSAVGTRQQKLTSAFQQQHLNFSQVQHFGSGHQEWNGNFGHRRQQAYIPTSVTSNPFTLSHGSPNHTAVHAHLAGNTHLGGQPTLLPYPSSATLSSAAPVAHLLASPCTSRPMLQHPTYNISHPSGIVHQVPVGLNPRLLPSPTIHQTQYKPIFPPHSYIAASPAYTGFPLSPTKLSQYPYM
Chain of PIM1 (P11309 whole entry): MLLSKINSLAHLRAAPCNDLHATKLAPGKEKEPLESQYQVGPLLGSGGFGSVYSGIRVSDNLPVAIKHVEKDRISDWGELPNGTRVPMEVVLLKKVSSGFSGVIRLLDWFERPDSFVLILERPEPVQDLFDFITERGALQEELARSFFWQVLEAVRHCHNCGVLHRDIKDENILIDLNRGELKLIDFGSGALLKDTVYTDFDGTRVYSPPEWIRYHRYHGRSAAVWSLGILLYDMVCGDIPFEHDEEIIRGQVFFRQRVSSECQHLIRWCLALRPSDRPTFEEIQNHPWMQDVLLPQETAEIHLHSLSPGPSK
Chain of HIPK1 (Q86Z02 whole entry): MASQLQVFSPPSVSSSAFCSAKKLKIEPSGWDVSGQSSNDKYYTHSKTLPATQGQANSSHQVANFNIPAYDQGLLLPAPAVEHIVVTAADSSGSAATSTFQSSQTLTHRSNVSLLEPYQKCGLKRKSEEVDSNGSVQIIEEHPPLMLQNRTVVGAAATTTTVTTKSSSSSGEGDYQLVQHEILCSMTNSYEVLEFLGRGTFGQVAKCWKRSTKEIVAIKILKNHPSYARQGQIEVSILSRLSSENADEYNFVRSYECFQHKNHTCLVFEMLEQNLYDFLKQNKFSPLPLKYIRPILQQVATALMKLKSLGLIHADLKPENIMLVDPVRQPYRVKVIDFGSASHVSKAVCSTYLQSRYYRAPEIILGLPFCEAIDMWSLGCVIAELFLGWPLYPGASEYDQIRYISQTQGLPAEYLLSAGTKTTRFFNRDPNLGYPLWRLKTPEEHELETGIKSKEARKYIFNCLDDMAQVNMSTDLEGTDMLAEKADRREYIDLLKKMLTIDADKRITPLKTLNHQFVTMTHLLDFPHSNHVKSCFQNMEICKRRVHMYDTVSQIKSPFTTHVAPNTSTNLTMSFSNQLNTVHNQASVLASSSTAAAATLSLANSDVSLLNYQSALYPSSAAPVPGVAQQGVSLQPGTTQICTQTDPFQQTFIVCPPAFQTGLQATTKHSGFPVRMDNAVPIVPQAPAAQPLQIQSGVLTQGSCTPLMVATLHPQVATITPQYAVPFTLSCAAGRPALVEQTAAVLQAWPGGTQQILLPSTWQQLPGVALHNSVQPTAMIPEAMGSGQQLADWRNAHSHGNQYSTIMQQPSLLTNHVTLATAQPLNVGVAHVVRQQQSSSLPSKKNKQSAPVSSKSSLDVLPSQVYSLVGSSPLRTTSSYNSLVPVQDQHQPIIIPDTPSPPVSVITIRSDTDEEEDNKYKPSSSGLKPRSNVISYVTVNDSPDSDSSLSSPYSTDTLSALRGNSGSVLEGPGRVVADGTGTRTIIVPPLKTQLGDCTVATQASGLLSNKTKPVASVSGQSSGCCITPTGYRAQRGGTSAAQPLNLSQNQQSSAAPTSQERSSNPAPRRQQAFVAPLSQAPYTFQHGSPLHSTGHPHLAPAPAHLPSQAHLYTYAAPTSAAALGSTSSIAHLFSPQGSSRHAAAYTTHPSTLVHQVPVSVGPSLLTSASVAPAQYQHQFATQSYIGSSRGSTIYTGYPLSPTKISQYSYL
Chain of PIM2 (Q9P1W9 whole entry): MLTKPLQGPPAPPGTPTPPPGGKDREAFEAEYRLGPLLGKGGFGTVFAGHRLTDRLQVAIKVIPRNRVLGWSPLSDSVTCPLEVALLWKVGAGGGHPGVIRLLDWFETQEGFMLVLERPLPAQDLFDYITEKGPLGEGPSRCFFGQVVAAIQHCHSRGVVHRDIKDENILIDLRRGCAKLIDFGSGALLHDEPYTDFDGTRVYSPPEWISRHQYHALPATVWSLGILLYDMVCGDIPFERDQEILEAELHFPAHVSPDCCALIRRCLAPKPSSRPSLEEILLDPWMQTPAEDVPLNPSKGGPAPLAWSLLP
Chain of IRAK1 (P51617 whole entry): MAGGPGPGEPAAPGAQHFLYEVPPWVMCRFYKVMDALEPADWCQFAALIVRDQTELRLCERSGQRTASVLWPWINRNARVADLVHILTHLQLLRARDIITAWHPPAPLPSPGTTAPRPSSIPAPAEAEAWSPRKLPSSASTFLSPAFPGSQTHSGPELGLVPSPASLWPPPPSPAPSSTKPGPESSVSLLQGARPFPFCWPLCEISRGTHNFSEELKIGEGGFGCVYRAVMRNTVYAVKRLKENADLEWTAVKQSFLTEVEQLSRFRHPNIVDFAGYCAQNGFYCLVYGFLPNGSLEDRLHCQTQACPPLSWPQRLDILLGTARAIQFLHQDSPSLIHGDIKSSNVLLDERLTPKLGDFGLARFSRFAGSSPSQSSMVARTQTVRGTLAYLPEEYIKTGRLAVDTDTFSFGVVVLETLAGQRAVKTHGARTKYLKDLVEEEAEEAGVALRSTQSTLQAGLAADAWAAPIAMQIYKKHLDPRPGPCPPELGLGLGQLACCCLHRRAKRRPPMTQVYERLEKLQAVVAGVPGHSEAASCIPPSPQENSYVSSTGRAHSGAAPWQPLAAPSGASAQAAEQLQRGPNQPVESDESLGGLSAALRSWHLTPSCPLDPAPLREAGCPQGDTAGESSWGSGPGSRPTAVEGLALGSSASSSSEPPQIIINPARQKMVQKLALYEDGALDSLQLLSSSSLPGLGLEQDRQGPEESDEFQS
T9 sequence (P49760 whole entry): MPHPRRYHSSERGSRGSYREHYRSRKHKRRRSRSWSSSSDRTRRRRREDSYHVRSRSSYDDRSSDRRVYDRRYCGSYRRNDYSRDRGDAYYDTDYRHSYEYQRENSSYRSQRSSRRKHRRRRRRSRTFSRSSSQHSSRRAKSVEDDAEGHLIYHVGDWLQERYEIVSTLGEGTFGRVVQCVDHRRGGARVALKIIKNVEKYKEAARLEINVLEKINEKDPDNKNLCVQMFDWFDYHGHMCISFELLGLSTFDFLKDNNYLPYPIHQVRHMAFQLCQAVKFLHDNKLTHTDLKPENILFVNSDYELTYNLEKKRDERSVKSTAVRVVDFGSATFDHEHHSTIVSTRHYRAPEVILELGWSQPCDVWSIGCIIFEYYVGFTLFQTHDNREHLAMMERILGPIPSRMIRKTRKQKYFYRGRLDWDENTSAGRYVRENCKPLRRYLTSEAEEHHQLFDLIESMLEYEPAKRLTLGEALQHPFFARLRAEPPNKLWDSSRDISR

With `N#CCn1c2c(Br)nccc2c2ccc(Cl)c(Cl)c21` [AnnH79], the “inhibition of DYRK1A-catalysed SF3B1 Thr434 phosphorylation” value in [1] was “does not inhibit DYRK1A”.

`COc1ccc2c(c1)[nH]c1c(C)nccc12` [Harmine, harmine]: the “Residual activity (% of control)” value was 66 % of control in assay [2]; […] in assay [4]; […] in assay [5] (1 μM); […] in assay [5] (10 μM); 68 % of control in assay [6] (1 μM); 34 % of control in [6] (10 μM). Moreover, the “Residual activity (% of control)” value is given as 74 % of control in assay [7] (1 μM); 78 % of control in assay [7] (10 μM); 118 % of control in assay [8] (1 μM); 44 % of control in [8] (10 μM); 101 % of control in [9] (1 μM); 43 % of control in assay [9] (10 μM). Further, the “Residual activity (% of control)” value in [10] (1 μM) is 119 % of control; in assay [10] (10 μM), 14 % of control; in assay [11] it was 90 % of control; in assay [17] it was […]; in [18] (1 μM), 35 % of control; in assay [18] (10 μM), 61 % of control. Besides, the “Residual activity (% of control)” value is given as 74 % of control in [19] (1 μM) and 85 % of control in [19] (10 μM). Further, the IC50 (commonly the concentration needed to halve the response being measured) was 590 nM in assay [3] (ref Cuny et al. 38) and […] in assay [5] (range of published values, read-out: Inhibition of DYRK1A IC50). The “Residual activity (% of control) DYRK2” value in [12] is 92 % of control. Also, the “Residual activity (% of control) DYRK1A” value in assay [13] is 27 % of control. In assay [14], the “Residual activity (% of control) DYRK1B” value is 11 % of control. In assay [15], the “Residual activity (% of control) HIPK2” value is 79 % of control. Moreover, the “Residual activity (% of control) CLK1” value in [16] was 23 % of control.

Take `COc1ccc2c3ccnc(C(F)(F)F)c3n(CCCCN)c2c1` [LDN-211898]: the “Residual activity (% of control)” value is listed as 47 % of control in assay [2]; 0 % of control in [3] (10 μM); 63 % of control in assay [20]; 2 % of control in assay [4]; 0 % of control in assay [5] (10 μM); 47 % of control in assay [6] (10 μM). The “Residual activity (% of control)” value in assay [21] is reported as 3 % of control; in [7] (10 μM), 11 % of control; in [8] (10 μM) it was 51 % of control; in assay [9] (10 μM), 36 % of control; in assay [10] (10 μM), 59 % of control; in assay [22] it was 1 % of control. The “Residual activity (% of control)” value in assay [11] is reported as 72 % of control; in [17], 0 % of control; in assay [18] (10 μM), 14 % of control; in [19] (10 μM) it was 9 % of control.

With `CCCCCCCn1c2cc(OC)ccc2c2ccnc(C)c21` [N9-heptyl harmine], in [5] (1 μM), the “inhibition of DYRK1A” value is 85%. In [23], the “inhibition of MAO-A” value is 13%.
